{
  "source": "patent US10478574B2",
  "about": "“Nasal administration” (OptiNose AS, priority 2006, dated 2019)",
  "key": {"[1]": {"assay": "Subjective sedation score on numeric rating scale (NRS) 0-10 after midazolam (Example #1)", "type": "in vivo, human", "quoted_text": "Subjective sedation was scored by a numeric rating scale (NRS) 0-10, where 0 is fully awake and 10 is falling asleep or as tired as you can imagine at 0, 2, 5, 10, 15, 20, 25, 30, 35, 45, 60, 90, 120 and 360 minutes after administration."}, "[2]": {"assay": "Blood plasma pharmacokinetics of midazolam for three administration systems (Example #1)", "details": "for Cl (obs) / Vz (obs): not corrected for bio-availability; for bio-availability: mean (95% CI); for AUC(0-t): AUClast", "description": "In this study, twelve healthy subjects, 4 male and 8 female, were studied.\nIn separate sessions, the subjects received 3.4 mg of midazolam by one of three different administration systems, these being: • (i) an intravenous administration system in which a midazolam formulation was intravenously administered; • (ii) a conventional nasal spray administration system in which a midazolam formulation was conventionally nasally administered using a spray pump as supplied by Ing Erich Pfeiffer GmbH (Radolfsee, Germany) which is specified to generate a liquid spray with a mean particle size of 43 μm, with 100 μl of the formulation being delivered to each nostril; and • (iii) the bi-directional administration system of the first-described embodiment, and incorporating the same spray pump as the conventional nasal spray administration system, in which a midazolam formulation was nasally administered, with 100 μl of the formulation being delivered to each nostril.\nEach study session was six hours in duration, and the sessions were separated by at least one week.\nThe intravenous formulation was a commercial midazolam HCl formulation (1 mg/ml (free base)) as supplied by Alpharma Inc (New Jersey, USA).\nThe nasal formulation was an aqueous solution containing midazolam base (1.7% w/v), sulfobutylether-β-cyclodextrin sodium salt with a molar substitution of 6.2 (Captisol®) (14% w/v) as supplied by CyDex Inc (Kansas, USA), hydroxypropyl methylcellulose (0.1% w/v), benzalkonium chloride (0.02% w/v), ethylene diaminetetraacetic acid (0.1% w/v) and phosphoric acid (0.73% w/v). The pH of the formulation was adjusted to a pH of between 4.20 and 4.35 with sodium hydroxide.\nVenous blood samples, each having a volume of 9 ml, were drawn just prior to administration and at 2, 5, 10, 15, 20, 25, 30, 35, 45, 60, 90, 120, 240 and 360 minutes after administration, in order to allow for a determination of the blood plasma concentration of midazolam.\nThe blood plasma concentration of midazolam was determined according to Martens et al.\nSamples, spiked with diazepam as an internal standard, were alkalised and extracted by toluene containing 0.1% w/v amyl alcohol. The resulting organic phase for each of the samples was then evaporated and the residue for each of the samples was derivatized with TBDMSTFA (/tert/-Butyldimethylsilyl)-N-methyltrifluoroacetamide with 1% w/v tert-butyldimethylsilyllchloride) at 60 °C. After the excess of TBDMSTFA was evaporated, the residue for each of the samples was dissolved in ethyl acetate and analyzed in a gas chromatograph, in this embodiment an HP 5890 gas chromatograph equipped with an HP 5972 mass-spectrometry detector as supplied by Hewlett Packard Inc (USA). The midazolam and diazepam components were quantified by the mass ions 310 and 256, respectively.\nIn this study, the midazolam clearance, the volume of distribution, the elimination rate, the maximum plasma concentration Cmax, the time maximum plasma concentration Tmax, and the area under the curve AUC (linear trapezoidal rule) were calculated by computerized curve fitting using the Win-Nonlin Standard 4.1 as supplied by Pharsight Corporation (California, USA). The systemic clearance (Cl)=dose/AUCiv, the apparent nasal clearances (Cln)=dose/AUCn, and the respective bioavailabilities (Fx)=(AUCx/dosey)/(AUCy/dosex) were determined from the calculated values.\nIn the results, the data is given as a median (min-max) or a mean (95% confidence interval (CI)). Regression analysis and ANOVA were used as appropriate. A bi-variate correlation (Pearson) was used to determine associations between variables. A paired sample t-test was used for group comparisons."}, "[3]": {"details": "bi-directional nasal administration system, 3.4 mg, mean"}, "[4]": {"details": "both, human, plasma, inhaled or intranasal, 3.4 mg, bi-directional nasal administration system, mean"}, "[5]": {"details": "both, human, plasma, inhaled or intranasal, 3.4 mg, conventional nasal spray administration system, mean"}, "[6]": {"details": "both, human, plasma, iv, 3.4 mg"}, "[7]": {"details": "both, human, plasma, iv, 3.4 mg, intravenous administration system, mean"}, "[8]": {"details": "conventional nasal spray administration system, 3.4 mg, mean"}},
  "data": [
    {"compound": "Cc1ncc2n1-c1ccc(Cl)cc1C(c1ccccc1F)=NC2", "note": "[midazolam]", "values": [
      {"measurement": "CNS effect (sedation score as a function of blood plasma concentration)", "setting": "[1]; bi-directional administration system compared with conventional nasal spray", "result": "substantially greater CNS effect than the conventional nasal spray administration system"},
      {"measurement": "sedation scores", "setting": "[1]; bi-directional administration system compared with intravenous, 3.4 mg, median NRS", "result": "equivalent to those of the intravenous administration system"},
      {"measurement": "onset of action", "setting": "[1]; bi-directional administration system compared with the other systems, 3.4 mg", "result": "considerably faster than the conventional nasal spray administration system"},
      {"measurement": "ratio of peak CNS effect to Cmax relative to intravenous administration", "setting": "[1]; bi-directional administration system, 3.4 mg", "result": "about 3.5 times"},
      {"measurement": "AUCinf", "setting": "[2]; [3]", "result": 5364, "unit": "ng·min/mL"},
      {"measurement": "Cl (obs)", "setting": "[2]; [3]", "result": 589, "unit": "mL/min"},
      {"measurement": "Vz (obs)", "setting": "[2]; [3]", "result": 98551, "unit": "mL"},
      {"measurement": "bio-availability", "setting": "[2]; bi-directional spray administration system vs intravenous", "result": "0.69 (0.57, 0.81)"},
      {"measurement": "AUC(0-inf)", "setting": "[2]; both, human, plasma, inhaled or intranasal, 3.4 mg", "result": 87.8, "unit": "ng·h/mL"},
      {"measurement": "AUC(0-t)", "setting": "[2]; [4]", "result": 76.9, "unit": "ng·h/mL"},
      {"measurement": "AUC(0-t)", "setting": "[2]; [5]", "result": 77.1, "unit": "ng·h/mL"},
      {"measurement": "Cmax", "setting": "[2]; [4]", "result": 44, "unit": "ng/mL"},
      {"measurement": "Cmax", "setting": "[2]; [5]", "result": 53, "unit": "ng/mL"},
      {"measurement": "half-life", "setting": "[2]; both, human, plasma, inhaled or intranasal, 3.4 mg, T1/2, bi-directional nasal administration system, mean", "result": 1.98, "unit": "h"},
      {"measurement": "half-life", "setting": "[2]; both, human, plasma, inhaled or intranasal, 3.4 mg, T1/2, conventional nasal spray administration system, mean", "result": 1.9, "unit": "h"},
      {"measurement": "Tmax", "setting": "[2]; [4]", "result": 0.267, "unit": "h"},
      {"measurement": "Tmax", "setting": "[2]; [5]", "result": 0.25, "unit": "h"},
      {"measurement": "AUC(0-inf)", "setting": "[2]; [6]", "result": 136, "unit": "ng·h/mL"},
      {"measurement": "Vd", "setting": "[2]; [6]", "result": 65.4, "unit": "L"},
      {"measurement": "clearance", "setting": "[2]; [6]", "result": 451, "unit": "mL/min"},
      {"measurement": "AUC(0-t)", "setting": "[2]; [7]", "result": 122, "unit": "ng·h/mL"},
      {"measurement": "Cmax", "setting": "[2]; [7]", "result": 152, "unit": "ng/mL"},
      {"measurement": "half-life", "setting": "[2]; both, human, plasma, iv, 3.4 mg, T1/2, intravenous administration system, mean", "result": 1.73, "unit": "h"},
      {"measurement": "Tmax", "setting": "[2]; [7]", "result": 0.0417, "unit": "h"},
      {"measurement": "Cl (obs)", "setting": "[2]; [8]", "result": 551, "unit": "mL/min"},
      {"measurement": "Vz (obs)", "setting": "[2]; [8]", "result": 90691, "unit": "mL"},
      {"measurement": "bio-availability", "setting": "[2]; conventional spray administration system vs intravenous", "result": "0.68 (037, 0.80)"}
    ]}
  ]
}
